Patent publication US20240116985A1, “STAPLED PEPTIDES AND METHODS THEREOF” (priority 2020, published 2024)
In brackets after ≈: the same amount, converted by molar mass. Where two headings read alike, the source gives them in different places.

Key:
Solubility in PBS = type: physicochemical
Outline: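 Solubility is derived from HPLC peak areas: the ratio of the PBS supernatant peak to a 50 μM DMSO peptide peak, times 50 uM.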

[1] = target: T1, full-length beta-Catenin (Uniprot ID P35222) (Homo sapiens, UniProt P35222); assay: Fluorescence polarization IC50 (beta-catenin / 5FAM-TCF4 10-53 competition); type: binding
T1 construct: 10 nM full-length beta-Catenin (Uniprot ID P35222)
T1 sequence (P35222 1-781): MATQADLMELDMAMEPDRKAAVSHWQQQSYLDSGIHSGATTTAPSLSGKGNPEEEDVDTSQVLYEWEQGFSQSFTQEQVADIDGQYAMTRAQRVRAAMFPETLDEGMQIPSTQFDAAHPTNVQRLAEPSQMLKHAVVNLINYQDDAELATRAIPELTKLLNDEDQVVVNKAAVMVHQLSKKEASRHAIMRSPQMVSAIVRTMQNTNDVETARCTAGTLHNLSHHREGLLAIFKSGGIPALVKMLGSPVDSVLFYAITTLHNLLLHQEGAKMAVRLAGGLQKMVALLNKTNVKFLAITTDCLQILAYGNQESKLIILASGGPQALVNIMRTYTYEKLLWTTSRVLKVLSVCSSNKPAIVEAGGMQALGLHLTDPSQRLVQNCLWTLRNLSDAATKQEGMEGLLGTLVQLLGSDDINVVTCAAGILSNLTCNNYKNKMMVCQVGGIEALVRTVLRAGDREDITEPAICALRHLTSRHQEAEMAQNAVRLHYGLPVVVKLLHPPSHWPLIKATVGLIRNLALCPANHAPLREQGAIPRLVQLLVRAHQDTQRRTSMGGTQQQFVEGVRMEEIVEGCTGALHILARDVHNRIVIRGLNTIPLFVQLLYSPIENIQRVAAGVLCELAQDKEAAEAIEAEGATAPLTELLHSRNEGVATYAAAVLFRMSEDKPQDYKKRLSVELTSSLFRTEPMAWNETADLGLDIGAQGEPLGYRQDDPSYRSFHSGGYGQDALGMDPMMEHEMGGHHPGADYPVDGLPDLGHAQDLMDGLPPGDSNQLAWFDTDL

CHI Log D procedure = type: physicochemical; conditions: for CHI Log D: pH 7.4
[2] = fluorescence polarization, read-out: beta-Catenin FP IC50

| SMILES | Solubility (Solubility in PBS) | IC50 [1, 2] | IC50 ([1]; read-out: FP EC50) | CHI Log D (CHI Log D procedure) | Solubility (Solubility in PBS; Solubility (uM)) | chromatographic logD (CHI Log D procedure; pH 7.4, CHI Log D) |
| --- | --- | --- | --- | --- | --- | --- |
| CC[C@H](C)[C@@H]1NC(=O)[C@H](CC(=O)O)NC(=O)[C@]2(CC=CCCCC3(CCCC=CCCCCCC[C@@](C)(C(=O)N[C@@H](Cc4ccccc4)C(=O)N[C@@H](Cc4csc5ccccc45)C(=O)N[C@@H](Cc4c[nH]c5ccccc45)C(N)=O)NC(=O)[C@H](CCC(N)=O)NC(=O)[C@H](Cc4ccccc4)NC(=O)[C@H](C)NC(=O)[C@H](C)NC(=O)[C@H](CCC(=O)O)NC(=O)[C@H](CC(=O)O)NC3=O)NC1=O)CCCN2C(C)=O (stereo partly drawn) [I-644, Ac-PL3-Asp-Ile-B5-Asp-Glu-Ala-Ala-Phe-Gln-S8-Phe-BztA-Trp-NH2] | 22 µM (≈ 42.7 µg/mL) | 808 nM | 808 nM | 2.837 |  |  |
| CC[C@H](C)[C@@H]1NC(=O)[C@H](CC(=O)O)NC(=O)[C@]2(CC=CCCCC3(CCCC=CCCCCCC[C@@](C)(C(=O)N[C@@H](Cc4ccccc4)C(=O)N[C@@H](Cc4csc5ccccc45)C(=O)N[C@H](C(N)=O)C(C)C)NC(=O)[C@H](CCC(N)=O)NC(=O)[C@H](Cc4ccccc4)NC(=O)[C@H](C)NC(=O)[C@H](C)NC(=O)[C@H](CCC(=O)O)NC(=O)[C@H](CC(=O)O)NC3=O)NC1=O)CCCN2C(C)=O (stereo partly drawn) [I-645, Ac-PL3-Asp-Ile-B5-Asp-Glu-Ala-Ala-Phe-Gln-S8-Phe-BztA-Val-NH2] | 40 µM (≈ 74.2 µg/mL) | 395 nM | 395 nM | 2.677 |  |  |
| CC[C@H](C)[C@@H]1NC(=O)[C@H](CC(=O)O)NC(=O)[C@]2(CC=CCCCC3(CCCC=CCCCCCC[C@@](C)(C(=O)N[C@@H](Cc4ccccc4)C(=O)N[C@@H](Cc4csc5ccccc45)C(=O)N[C@H](C(N)=O)C(C)C)NC(=O)[C@H](CCC(N)=O)NC(=O)[C@H](Cc4ccccc4)NC(=O)[C@H](C)NC(=O)[C@H](C)NC(=O)[C@H](CCC(=O)O)NC(=O)[C@H](CC(=O)O)NC3=O)NC1=O)CCCN2C(C)=O (stereo partly drawn) [I-646, Ac-PL3-Asp-Ile-B5-Asp-Glu-Ala-Ala-Phe-Gln-S8-Phe-BztA-Val-NH2] | 41 µM (≈ 76 µg/mL) | 461 nM | 461 nM | 2.694 |  |  |
| CC[C@H](C)[C@@H]1NC(=O)[C@H](CC(=O)O)NC(=O)[C@]2(CC=CCCCC3(CCCC=CCCCCCC[C@@](C)(C(=O)N[C@@H](Cc4ccccc4)C(=O)N[C@@H](Cc4csc5ccccc45)C(=O)N[C@@H](CCC(N)=O)C(N)=O)NC(=O)[C@H](CCC(N)=O)NC(=O)[C@H](Cc4ccccc4)NC(=O)[C@H](C)NC(=O)[C@H](CC(C)C)NC(=O)[C@H](CCC(=O)O)NC(=O)[C@H](CC(=O)O)NC3=O)NC1=O)CCCN2C(C)=O (stereo partly drawn) [I-647, Ac-PL3-Asp-Ile-B5-Asp-Glu-Leu-Ala-Phe-Gln-S8-Phe-BztA-Gln-NH2] | 50 µM (≈ 96.3 µg/mL) | 445 nM | 445 nM | 2.677 |  |  |
| CC[C@H](C)[C@@H]1NC(=O)[C@H](CC(=O)O)NC(=O)[C@]2(CC=CCCCC3(CCCC=CCCCCCC[C@@](C)(C(=O)N[C@@H](Cc4ccccc4)C(=O)N[C@@H](Cc4csc5ccccc45)C(=O)N[C@@H](CCC(N)=O)C(N)=O)NC(=O)[C@H](CCC(N)=O)NC(=O)[C@H](Cc4ccccc4)NC(=O)[C@H](C)NC(=O)[C@H](CC(C)C)NC(=O)[C@H](CCC(=O)O)NC(=O)[C@H](CC(=O)O)NC3=O)NC1=O)CCCN2C(C)=O (stereo partly drawn) [I-648, Ac-PL3-Asp-Ile-B5-Asp-Glu-Leu-Ala-Phe-Gln-S8-Phe-BztA-Gln-NH2] | 46 µM (≈ 88.6 µg/mL) | 233 nM | 233 nM | 2.721 |  |  |
| CC[C@H](C)[C@@H]1NC(=O)[C@H](CC(=O)O)NC(=O)[C@]2(CC=CCCCC3(CCCC=CCCCCCC[C@@](C)(C(=O)N[C@@H](Cc4ccccc4)C(=O)N[C@@H](Cc4csc5ccccc45)C(=O)N[C@@H](CCC(N)=O)C(N)=O)NC(=O)[C@H](CCC(N)=O)NC(=O)[C@H](Cc4ccccc4)NC(=O)[C@H](C)NC(=O)[C@H](Cc4ccccc4)NC(=O)[C@H](CCC(=O)O)NC(=O)[C@H](CC(=O)O)NC3=O)NC1=O)CCCN2C(C)=O (stereo partly drawn) [I-649, Ac-PL3-Asp-Ile-B5-Asp-Glu-Phe-Ala-Phe-Gln-S8-Phe-BztA-Gln-NH2] | 41 µM (≈ 80.3 µg/mL) | 209 nM | 209 nM | 2.677 |  |  |
| CC[C@H](C)[C@@H]1NC(=O)[C@H](CC(=O)O)NC(=O)[C@]2(CC=CCCCC3(CCCC=CCCCCCC[C@@](C)(C(=O)N[C@@H](Cc4ccccc4)C(=O)N[C@@H](Cc4csc5ccccc45)C(=O)N[C@@H](CCC(N)=O)C(N)=O)NC(=O)[C@H](CCC(N)=O)NC(=O)[C@H](Cc4ccccc4)NC(=O)[C@H](C)NC(=O)[C@H](Cc4ccccc4)NC(=O)[C@H](CCC(=O)O)NC(=O)[C@H](CC(=O)O)NC3=O)NC1=O)CCCN2C(C)=O (stereo partly drawn) [I-650, Ac-PL3-Asp-Ile-B5-Asp-Glu-Phe-Ala-Phe-Gln-S8-Phe-BztA-Gln-NH2] | 45 µM (≈ 88.2 µg/mL) | 137 nM | 137 nM | 2.718 |  |  |
| CC[C@H](C)[C@@H]1NC(=O)[C@H](CC(=O)O)NC(=O)[C@]2(CC=CCCCC3(CCCC=CCCCCCC[C@@](C)(C(=O)N[C@@H](Cc4ccccc4)C(=O)N[C@@H](Cc4csc5ccccc45)C(=O)N[C@@H](CCC(N)=O)C(N)=O)NC(=O)[C@H](CCC(N)=O)NC(=O)[C@H](Cc4ccccc4)NC(=O)[C@H](C)NC(=O)[C@H](CO)NC(=O)[C@H](CCC(=O)O)NC(=O)[C@H](CC(=O)O)NC3=O)NC1=O)CCCN2C(C)=O (stereo partly drawn) [I-651, Ac-PL3-Asp-Ile-B5-Asp-Glu-Ser-Ala-Phe-Gln-S8-Phe-BztA-Gln-NH2] | 48 µM (≈ 91.2 µg/mL) | 186 nM | 186 nM | 2.167 |  |  |
| CC[C@H](C)[C@@H]1NC(=O)[C@H](CC(=O)O)NC(=O)[C@]2(CC=CCCCC3(CCCC=CCCCCCC[C@@](C)(C(=O)N[C@@H](Cc4ccccc4)C(=O)N[C@@H](Cc4csc5ccccc45)C(=O)N[C@@H](CCC(N)=O)C(N)=O)NC(=O)[C@H](CCC(N)=O)NC(=O)[C@H](Cc4ccccc4)NC(=O)[C@H](C)NC(=O)[C@H](Cc4c[nH]c5ccccc45)NC(=O)[C@H](CCC(=O)O)NC(=O)[C@H](CC(=O)O)NC3=O)NC1=O)CCCN2C(C)=O (stereo partly drawn) [I-655, Ac-PL3-Asp-Ile-B5-Asp-Glu-Trp-Ala-Phe-Gln-S8-Phe-BztA-Gln-NH2] |  | 183 nM |  |  | 46 µM (≈ 91.9 µg/mL) | 2.69 |

Now those with a lower IC50 [1, 2], led by results:

| Solubility (Solubility in PBS) | IC50 [1, 2] | IC50 ([1]; read-out: FP EC50) | CHI Log D (CHI Log D procedure) | Solubility (Solubility in PBS; Solubility (uM)) | chromatographic logD (CHI Log D procedure; pH 7.4, CHI Log D) | SMILES |
| --- | --- | --- | --- | --- | --- | --- |
| 39 µM (≈ 75.7 µg/mL) | 108 nM | 108 nM | 2.07 |  |  | CC[C@H](C)[C@@H]1NC(=O)[C@H](CC(=O)O)NC(=O)[C@]2(CC=CCCCC3(CCCC=CCCCCCC[C@@](C)(C(=O)N[C@@H](Cc4ccccc4)C(=O)N[C@@H](Cc4csc5ccccc45)C(=O)N[C@@H](CCC(N)=O)C(N)=O)NC(=O)[C@H](CCC(N)=O)NC(=O)[C@H](Cc4ccccc4)NC(=O)[C@H](C)NC(=O)[C@H](CCC(N)=O)NC(=O)[C@H](CCC(=O)O)NC(=O)[C@H](CC(=O)O)NC3=O)NC1=O)CCCN2C(C)=O (stereo partly drawn) [I-653, Ac-PL3-Asp-Ile-B5-Asp-Glu-Gln-Ala-Phe-Gln-S8-Phe-BztA-Gln-NH2] |
| 40 µM (≈ 77 µg/mL) | 73 nM | 73 nM | 2.736 |  |  | CCCC[C@@H]1NC(=O)[C@H](CCC(=O)O)NC(=O)[C@H](CC(=O)O)NC(=O)C2(CCCC=CCCCCCC[C@@](C)(C(=O)N[C@@H](Cc3ccccc3)C(=O)N[C@@H](Cc3csc4ccccc34)C(=O)N[C@@H](CCC(N)=O)C(N)=O)NC(=O)[C@H](CCC(N)=O)NC(=O)[C@H](Cc3ccccc3)NC(=O)[C@H](C)NC1=O)CCCC=CC[C@]1(CCCN1C(C)=O)C(=O)N[C@@H](CC(=O)O)C(=O)N[C@@H]([C@@H](C)CC)C(=O)N2 (stereo partly drawn) [I-656, Ac-PL3-Asp-Ile-B5-Asp-Glu-nLeu-Ala-Phe-Gln-S8-Phe-BztA-Gln-NH2] |
| 48 µM (≈ 91.2 µg/mL) | 72 nM | 72 nM | 2.233 |  |  | CC[C@H](C)[C@@H]1NC(=O)[C@H](CC(=O)O)NC(=O)[C@]2(CC=CCCCC3(CCCC=CCCCCCC[C@@](C)(C(=O)N[C@@H](Cc4ccccc4)C(=O)N[C@@H](Cc4csc5ccccc45)C(=O)N[C@@H](CCC(N)=O)C(N)=O)NC(=O)[C@H](CCC(N)=O)NC(=O)[C@H](Cc4ccccc4)NC(=O)[C@H](C)NC(=O)[C@H](CO)NC(=O)[C@H](CCC(=O)O)NC(=O)[C@H](CC(=O)O)NC3=O)NC1=O)CCCN2C(C)=O (stereo partly drawn) [I-652, Ac-PL3-Asp-Ile-B5-Asp-Glu-Ser-Ala-Phe-Gln-S8-Phe-BztA-Gln-NH2] |
| 40 µM (≈ 77 µg/mL) | 46 nM | 46 nM | 2.767 |  |  | CCCC[C@@H]1NC(=O)[C@H](CCC(=O)O)NC(=O)[C@H](CC(=O)O)NC(=O)C2(CCCC=CCCCCCC[C@@](C)(C(=O)N[C@@H](Cc3ccccc3)C(=O)N[C@@H](Cc3csc4ccccc34)C(=O)N[C@@H](CCC(N)=O)C(N)=O)NC(=O)[C@H](CCC(N)=O)NC(=O)[C@H](Cc3ccccc3)NC(=O)[C@H](C)NC1=O)CCCC=CC[C@]1(CCCN1C(C)=O)C(=O)N[C@@H](CC(=O)O)C(=O)N[C@@H]([C@@H](C)CC)C(=O)N2 (stereo partly drawn) [I-657, Ac-PL3-Asp-Ile-B5-Asp-Glu-nLeu-Ala-Phe-Gln-S8-Phe-BztA-Gln-NH2] |
